Assays:
[1] = biological target: T1, Human recombinant MMP-9 (Homo sapiens, UniProt P14780); assay: In vitro MMP inhibition analysis (fluorogenic peptide substrate), MMP-9; type: biochemical; conditions: human recombinant enzyme; 4 μM substrate (A); apparent Ki without substrate correction
T1 construct: made in house; host or cells: MMP-9-transfected HT1080 cells (spent media)
Method: (§1) Several compounds and salts were analyzed in an in vitro assay to determine their ability to inhibit the MMP cleavage of peptide substrates. Inhibition constant (Ki) were calculated from the assayed compound-MMP interactions.
(§2) Human recombinant MMP-1, MMP-2, MMP-9, MMP-13, and MMP-14 were used in this assay. All enzymes were prepared in Assignee's laboratories following usual laboratory procedures. Protocols for the preparation and use of these enzymes are available in the scientific literature. See, e.g., Enzyme Nomenclature (Academic Press, San Diego, Calif., 1992) (and the citations therein). See also, Freije et al., J. Biol. Chem., 269(24), 16766-16773 (1994).
The MMP-9 proenzyme was purified by gelatin Sepharose chromatography from spent media of MMP-9-transfected HT1080 cells provided by Dr. Howard Welgus of Washington University (St. Louis, Mo.).
(§3) All MMPs were activated using 4-aminophenylmercuric acetate (“APMA”, Sigma Chemical, St. Louis, Mo.) or trypsin. MMP-9 also was activated using human recombinant MMP-3 (purified in Assignee's laboratory following standard cloning and purification techniques).
(§4) The following fluorogenic, methoxycoumarin-containing polypeptide substrate (A) was used in the MMP inhibition assays:
(§5) MCA-ArgProLeuGlyLeuDpaAlaArgGluArgNH2 (A)
(§6) “MCA” is 7-methoxycoumarin-4-yl acetyl. Substrate (A) was prepared Assignee's laboratory. In the absence of MMP inhibitory activity, the substrate is cleaved at the Gly-Leu peptide bond. This cleavage separates the highly fluorogenic peptide from the 2,4-dinitrophenyl quencher, thus resulting in increase of fluorescent intensity.
(§7) The stock solutions of the assayed compounds and salts were prepared in 1% dimethyl sulfoxide (DMSO). These stock solutions were diluted in Buffer A (100 mM Tris-HCl, 100 mM NaCl, 10 mM CaCl2, 0.05% polyoxyethylene 23 lauryl ether, pH 7.5) to obtain solutions with different compound concentrations, i.e., assay solutions with different concentrations of the assayed MMP inhibitory compound. The experiment controls contained the same amount of Buffer A/DMSO as the assayed sample, but contained none of the tested compound or salt.
(§8) The assays from which the Ki determinations were made were performed as follows. The assayed compound samples were incubated in separate wells of untreated white polystyrene plates (Nunc Nalgene International, Rochester, N.Y.), and analyzed on a Tecan SpectraFlour Plus plate reader. The excitation wavelength was 330 nm, and the emission wavelength -420 nm. All samples (assayed compounds and controls) were incubated in separate plate wells at room temperature for 1 hr in the presence of 4 μM of MMP substrate (A). In the absence of MMP inhibitory activity, substrate (A) was cleaved at the Gly-Leu bond resulting in an increase of relative fluorescence. Inhibition was observed as a reduced rate of this increase in relative fluorescence. […] This protocol is a modification of method by Knight et al., FEBS Lett., 296(3), 263-266 (1992). Apparent inhibitory constants were determined by non-linear regression of reaction velocity as a function of inhibitor and enzyme concentration using Morrison's equation, as described by Kuzmic, P., et al., Anal. Biochem., 286(1):45-50 (2000). Modifications were made in the non-linear regression method to allow a common control reaction rate and effective enzyme concentration to be shared between all dose-response relationships on a given assay plate. Since the substrate concentration was chosen to be at or below the Km, the apparent Ki's from this analysis were reported as Ki's without correction for the influence of substrate.
(§9) The above protocols were used to determine MMP inhibition Ki constants for the compounds in Examples 1, 2, and 4-42 above. All Ki values in Table 3 are given in nM units.

[2] = biological target: T2, Human recombinant MMP-1 (Homo sapiens, UniProt P03956); assay: In vitro MMP inhibition analysis (fluorogenic peptide substrate), MMP-1; type: biochemical; conditions: human recombinant enzyme; 4 μM substrate (A); apparent Ki without substrate correction
T2 construct: made in house; host or cells: MMP-1-transfected HT-1080 cells (spent media)
T2 sequence (P03956 100-469): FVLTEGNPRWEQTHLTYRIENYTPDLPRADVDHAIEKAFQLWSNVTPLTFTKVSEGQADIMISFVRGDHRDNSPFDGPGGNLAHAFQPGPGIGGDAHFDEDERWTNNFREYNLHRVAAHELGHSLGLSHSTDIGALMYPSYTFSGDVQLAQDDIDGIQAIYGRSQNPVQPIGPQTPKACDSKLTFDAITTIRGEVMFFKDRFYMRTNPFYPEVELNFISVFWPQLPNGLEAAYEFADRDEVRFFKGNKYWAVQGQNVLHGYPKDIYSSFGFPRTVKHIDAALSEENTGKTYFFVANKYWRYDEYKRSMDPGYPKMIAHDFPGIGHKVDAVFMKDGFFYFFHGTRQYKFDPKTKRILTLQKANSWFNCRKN
Method: as §1, §2
The MMP-1 proenzyme was purified from the spent media of MMP-1-transfected HT-1080 cells provided by Dr. Harold Welgus of Washington University (St. Louis, Mo.). The protein was purified on a zinc chelating column.
as §3, §4, §5, §6, §7, §8, §9

[3] = biological target: T3, Human recombinant MMP-2 (Homo sapiens, UniProt P08253); assay: In vitro MMP inhibition analysis (fluorogenic peptide substrate), MMP-2; type: biochemical; conditions: human recombinant enzyme; 4 μM substrate (A); apparent Ki without substrate correction
T3 construct: made in house; host or cells: MMP-2-transfected p2AHT2 cells
T3 sequence (P08253 110-660): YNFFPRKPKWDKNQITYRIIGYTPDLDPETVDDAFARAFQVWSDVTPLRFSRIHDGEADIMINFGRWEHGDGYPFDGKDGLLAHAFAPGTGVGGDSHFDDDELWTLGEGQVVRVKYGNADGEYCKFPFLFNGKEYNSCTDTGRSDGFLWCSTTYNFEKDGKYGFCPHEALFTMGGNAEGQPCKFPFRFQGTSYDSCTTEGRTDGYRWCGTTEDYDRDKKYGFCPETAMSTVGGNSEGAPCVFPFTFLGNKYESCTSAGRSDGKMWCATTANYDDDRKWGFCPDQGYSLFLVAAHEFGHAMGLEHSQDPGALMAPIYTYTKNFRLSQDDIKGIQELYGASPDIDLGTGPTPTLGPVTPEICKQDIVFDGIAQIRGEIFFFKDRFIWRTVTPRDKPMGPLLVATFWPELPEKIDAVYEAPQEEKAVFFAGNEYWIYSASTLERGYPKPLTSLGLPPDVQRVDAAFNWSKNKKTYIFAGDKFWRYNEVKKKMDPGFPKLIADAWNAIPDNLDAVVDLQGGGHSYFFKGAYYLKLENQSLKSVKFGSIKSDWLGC
Method: as §1, §2
The MMP-2 proenzyme was purified by gelatin Sepharose chromatography from MMP-2- transfected p2AHT2 cells provided by Dr. Gregory Goldberg of Washington University (St. Louis, Mo.).
as §3, §4, §5, §6, §7, §8, §9

[4] = biological target: T4, Human recombinant MMP-14 (Homo sapiens, UniProt P50281); assay: In vitro MMP inhibition analysis (fluorogenic peptide substrate), MMP-14; type: biochemical; conditions: human recombinant catalytic domain; 4 μM substrate (A); apparent Ki without substrate correction
T4 construct: The catalytic domain enzyme was expressed in E. Coli inclusion bodies; made in house
Method: as §1, §2
The MMP-14 full length cDNA was provided by Dr. Gregory Goldberg of Washington University (St. Louis, Mo.). The catalytic domain enzyme was expressed in E. Coli inclusion bodies, solubilized in urea, purified on a preparative […] reverse phase HPLC column, and then refolded in the presence of zinc acetate and purified for use.
as §3, §4, §5, §6, §7, §8, §9

[5] = system: advanced, rapidly progressive, treatment-refractory solid tumor cancers (colorectal, pancreatic, ovarian, and prostate); conditions: cited from earlier work

T1 sequence (P14780 107-707 limits assumed): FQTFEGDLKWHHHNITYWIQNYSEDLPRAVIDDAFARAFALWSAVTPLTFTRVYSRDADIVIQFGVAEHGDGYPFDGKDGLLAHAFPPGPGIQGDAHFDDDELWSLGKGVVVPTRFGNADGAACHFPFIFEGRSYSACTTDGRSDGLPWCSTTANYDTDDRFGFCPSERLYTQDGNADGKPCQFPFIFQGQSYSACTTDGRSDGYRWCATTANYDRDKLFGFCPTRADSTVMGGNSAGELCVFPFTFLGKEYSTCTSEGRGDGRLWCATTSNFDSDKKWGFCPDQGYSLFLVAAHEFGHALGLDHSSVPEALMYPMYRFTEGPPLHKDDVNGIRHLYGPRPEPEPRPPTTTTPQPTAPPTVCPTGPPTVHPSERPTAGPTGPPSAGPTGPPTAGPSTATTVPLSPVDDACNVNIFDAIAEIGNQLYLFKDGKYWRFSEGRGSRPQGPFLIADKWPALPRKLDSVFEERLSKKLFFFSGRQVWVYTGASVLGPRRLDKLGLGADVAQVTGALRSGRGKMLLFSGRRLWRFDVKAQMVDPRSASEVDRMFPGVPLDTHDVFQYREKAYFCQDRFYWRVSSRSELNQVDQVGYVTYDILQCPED

SMILES	Ki [1] [µM]	Ki [2] [µM]	Ki [3] [µM]	Ki [4] [µM]	effect on cancer-specific antigens used as surrogate markers for biological activity ([5]; Phase I/II studies, patients with advanced solid tumor cancers)	most common drug-related toxicity ([5]; clinical trials, patients)
O=C(c1ccc(-c2ccc(S(=O)(=O)C3(C(=O)NO)CCOCC3)cn2)cc1)N1CCCCC1 [Example 77]	> 10	> 10	4.97	> 10	–	–
O=C(c1ccc(-c2ccc(S(=O)(=O)C3(C(=O)NO)CCOCC3)cn2)cc1)N1CCOCC1 [Example 80]	> 10	> 10	1.76	> 10	–	–
CNC(=O)[C@@H](NC(=O)[C@H](CC(C)C)[C@H](O)C(=O)NO)C(C)(C)C [Marimastat]	–	–	–	–	dose-related reduction in the rise of cancer-specific antigens	musculoskeletal pain and stiffness
